Measurements: publication PMC11137182, “Selective and brain-penetrant ACSS2 inhibitors target breast cancer brain metastatic cells” (Frontiers in Pharmacology, 2024)

Tests used:
MDA-MB-231BR cells = assay: Clonogenic survival assay; format: cell-based; details: 100 μM, 48 h treatment, 10 days growth
Protocol: Triple-negative brain trophic cells MDA-MB-231BR and 4T1BR cells were a kind gift from Dr. Patricia Steeg (Center for Cancer Research, National Cancer Institute) ([Achrol et al., 2019]). Both cell lines were cultured in DMEM supplemented with 10% fetal bovine serum (FBS), 5% 10,000 Units/mL Penicillin-10,000 μg/mL Streptomycin, and 5% 200 mM L-Glutamine. For crystal violet staining, 5 × 10^4 cells were plated and subjected to the treatments as described in the individual figures and then stained with 0.5% crystal violet prepared in a 1:1 methanol-water solution followed by PBS washes. ACSS2 inhibitors were dissolved in 100% ultra-pure DMSO.
To assess clonogenic survival, 1 × 10^5 cells were seeded into a 6-well plate until 70%–80% confluency and treated for 48 h with analogs at 100 uM (unless otherwise stated in the figure legend). After 48 h, cells were trypsinized and counted using hemocytomer, and 1 × 10^4 cells per treatment were plated into a 6-well plate with fresh culture medium and allowed to grow for 10 days. Following 10-day incubation, cells were washed twice with PBS, stained with crystal violet for 30 min, and washed with dH2O twice. Colonies >50mircons were counted. For crystal violet staining, 0.5% crystal violet was prepared in a 1:1 methanol-water solution.

[1] = system: MDA-MB-231BR tumor bearing brain slices; assay: Ex vivo tumor-brain slice model; set-up: species or system Nu/Nu mice; details: MDA-MB-231BR brain slices, 100 μM, 6 days, bioluminescence
Protocol: (§1) Ex vivo brain slice tumor model was performed as previously described ([Ciraku et al., 2021]). Briefly, Nu/Nu athymic 4–6 week old mice Charles River Laboratories (Wilmington, MA, United States) were immobilized using the Just for Mice Stereotaxic Frame (Harvard Apparatus, Holliston, MA, United States) and injected intracranially with 5uL of 20,000 cells/uL solution of luciferase tagged MDA-MB-231BR or 4T1BR cells. Tumor growth was monitored via bioluminescence imaging on the IVIS system (Perkin Elmer, Waltman, MA, United States). Organotypic hippocampal cultures were prepared as described previously ([Ciraku et al., 2021]). Briefly, adult mice (4–6 weeks) or mice after 12 days following intracranial injection were decapitated and their brains rapidly removed into ice-cold (4°C) sucrose-aCSF composed of the following (in mM): 280 sucrose, 5 KCl, 2 MgCl2, 1 CaCl2, 20 glucose, 10 HEPES, 5 Na^+-ascorbate, 3 thiourea, 2 Na^+-pyruvate; pH = 7.3. […] Tumor growth was monitored via bioluminescence imaging on the IVIS 200 system (Perkin Elmer), and results were analyzed using Living Image software (Caliper Life Sciences, Waltham, MA, United StatesUnited States). […] Tissues were incubated at 37 ℃ , 5% CO2 for 4 h, and absorbance at 490 nm was measured with a Tecan Spark Microplate reader.

[2] = system: brain slices not containing tumors; assay: MTS cell viability of brain slices without tumor; set-up: species or system mice; details: 100 μM, day 6, MTS assay
Protocol: as §1

[3] = system: MDA-MB-231BR tumor bearing brain slices; assay: Ex vivo tumor-brain slice model with irradiation; set-up: species or system nu/nu mice; details: 6 days
Protocol: as §1

[4] = BBB permeability in vivo (LC-MS, brain over blood); set-up: species or system BalbC mice; details: mice, 50 mg/kg intraperitoneal, 30 min (AD-5584) or 1 h (AD-8007, VY-3-135)
Protocol: Human ACSS2 inhibitors were prepared in 10 mg/mL saline solution. BalbC 4–6 week-old mice were weighed and injected with 50 mg/kg or 100 mg/kg of drug saline solution via intraperitoneal injection. After 30 min or 60 min, mice treated with AD-5584 or AD-8007 and VY-3-135 were placed in isoflurane, and blood was extracted and perfused via intracardiac injection. Following perfusion, mice were decapitated, and their brains were rapidly removed into ice-cold PBS. For analysis of blood samples, 200 µL of blood was transferred and allowed to clot for 15 min at room temperature. Samples were precipitated at 16000xg for 1 min, and 50 µL of serum was transferred. To serum, 200 µL of methanol was added, and samples were centrifuged at 16000 g for 5 min. The supernatant was analyzed by LCMS. For analysis of brain samples, brains were homogenized via bead beating using four 2.3 mm stainless steel beads in 1 mL of MeOH and 0.5 mL of H2O. After centrifugation for 15 min at 3000xg, the supernatant was analyzed by LCMS. LCMS was performed on an Acquity I-Class UPLC system coupled to a Synapt G2Si HDMS mass spectrometer in positive ion mode with a heated electrospray ionization (ESI) source in a Z-spray configuration. […] Data was analyzed using Waters MassLynx and Waters Unifi. Calibration curves of authentic standards were used for quantification.

N[C@H](C(=O)N1CCCC(c2ccccc2)(c2ccccc2)C1)C1CC1 [AD-8007]
clonogenic survival (MDA-MB-231BR cells): significant reduction in clonogenic survival | tumor growth of preformed tumors ex vivo [1]: significantly reduced tumor growth of preformed tumors | cell viability of brain slices without tumor [2]: did not alter cell viability | preformed BCBM tumors ex vivo, combination with radiation ([3]; 20 μM plus one dose of 6 Gy): significantly reduced preformed BCBM tumors | BCBM cell growth ex vivo, drug alone ([3]; suboptimal dose 20 µM, no irradiation): little effect on BCBM cell growth | level of drug in the brain over blood [4]: detected at significantly higher levels in the brain compared to VY-3-135
